This note sets out measurements from ChEMBL document CHEMBL1201862, “PubChem BioAssay data set” (2004).

A short description of experiment [1]: viability of uninfected HEp-2 cells – cell-based, HTS, cytotoxicity control for RSV inhibitor project, dose response (AID 2410). It is filed as functional. The note with it: human respiratory syncytial virus.
A short description of experiment [2]: cells.
Experiment [3] concerns the target T1, Polyadenylate-binding protein 1 (Homo sapiens, UniProt P11940). The experiment in a line: MLLE domain peptide-binding blockers, IC50 – biochemical, fluorescence polarization, FITC-PAM2 peptide, dose response (AID 602259). It is filed as functional. As to conditions: read-out: IC50_Mean.
Experiment [4] addresses T1, Polyadenylate-binding protein 1. The experiment in a line: MLLE binding blockers, Cy5 peptide tracer – biochemical, fluorescence polarization, Cy5-PAM2 peptide, secondary, miRNA deadenylation inhibitor project, dose response (AID 602260). It is filed as functional. As to conditions: read-out: IC50_Mean.
Experiment [5] addresses T2, Interleukin-8 (Homo sapiens, UniProt P10145).
T2 sequence (P10145 whole entry): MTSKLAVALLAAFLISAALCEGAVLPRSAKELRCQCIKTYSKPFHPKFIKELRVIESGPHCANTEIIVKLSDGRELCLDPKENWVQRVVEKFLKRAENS
Briefly: SAR analysis of GM-Tri-DAP induced IL-8 secretion in MCF-7/NOD1 cells - Set 2. [Related pubchem assays (depositor defined):AID1575, AID1578, AID2333]. It is filed as functional, cell-based.

Experiment [6] deals with T2, Interleukin-8. The experiment in a line: SAR analysis of Tumor necrosis factor alpha (TNF-alpha) induced IL-8 secretion in MCF-7/NOD1 cells - Set 2. [Related pubchem assays (depositor defined):AID1575, AID2250, AID2260]. It is filed as functional, cell-based.
Experiment [7] deals with Tumor necrosis factor (Homo sapiens, UniProt P01375). The experiment in a line: analog potency on TNFa NF-kB signaling – cell-based, revised, SAR follow-up (AID 2337). It is filed as functional.
The target in experiment [8] is Potassium voltage-gated channel subfamily KQT member 2 (Rattus norvegicus, UniProt O88943). The experiment in a line: potentiation of rat KCNQ2 current – cell-based, retigabine-insensitive compounds, dose response (AID 2654). It is filed as functional.
Experiment [9] concerns the target Ras and Rab interactor 1/Tyrosine-protein kinase ABL1 (Homo sapiens, UniProt P00519+Q13671). It is filed as functional.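 Note: biochemical TR-FRET dose-response test measuring inhibition of binding between Rin1 and Abl proteins.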
For experiment [10], the target named is T3, Carboxy-terminal domain RNA polymerase II polypeptide A small phosphatase 1 (Homo sapiens, UniProt Q9GZU7).
T3 sequence (Q9GZU7 whole entry): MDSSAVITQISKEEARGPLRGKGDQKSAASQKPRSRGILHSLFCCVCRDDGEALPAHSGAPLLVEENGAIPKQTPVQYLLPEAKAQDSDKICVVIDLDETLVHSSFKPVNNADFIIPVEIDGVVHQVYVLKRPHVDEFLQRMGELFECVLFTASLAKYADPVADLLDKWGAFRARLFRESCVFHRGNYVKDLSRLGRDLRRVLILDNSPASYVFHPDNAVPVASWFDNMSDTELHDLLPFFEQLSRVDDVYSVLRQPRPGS
Briefly: CTDSP1 inhibitors, concentration-response, biochemical, absorbance readout, ultra-high-throughput screen actives (AID 540297). It is filed as functional.

For experiment [11], the target named is ORF 73 (Human herpesvirus 8, UniProt O40947). Briefly: KSHV LANA DNA-binding disruption – biochemical, fluorescence polarization, cherry-picked samples, dose response (AID 504725).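 Note: fluorescence polarization of a labeled DNA duplex reporting LANA DNA binding; potency is for inhibitors that block LANA binding to the DNA.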 Further details: species or system Human gammaherpesvirus 8.
Experiment [12] is described as follows: A Cell Based Secondary Assay To Explore Cytotoxicity of Compounds that Sensitize Mycobacterium Tuberculosis to Beta-Lactam Antibiotics. It is filed as functional.
In experiment [13] the target is DNA dC->dU-editing enzyme APOBEC-3G (Homo sapiens, UniProt Q9HC16). It is filed as functional.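 Note: Dose-response counterscreen measuring inhibition of APOBEC3G DNA deaminase activity, run while confirming APOBEC3A inhibitors.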
The target in experiment [14] is DNA dC->dU-editing enzyme APOBEC-3A (Homo sapiens, UniProt P31941). The experiment in a line: Dose Response confirmation of small molecule APOBEC3A DNA Deaminase Inhibitors via a fluorescence-based single-stranded DNA deaminase assay. [Related pubchem assays (depositor defined):AID493011, AID493024]. It is filed as functional.
Experiment [15] deals with Eukaryotic translation initiation factor 4H (Homo sapiens, UniProt Q15056). Briefly: eIF4H binding inhibition – biochemical, uHTS, fluorescence polarization, translation initiation inhibitor project, primary screen (AID 2012).
Experiment [16] has as its target T1, Polyadenylate-binding protein 1. The experiment in a line: blockers of PABP interaction with poly(A) – biochemical, fluorescence polarization, […] (AID 2014).
Experiment [17] addresses T4, Bcl-2-related protein A1 (Mus musculus, UniProt Q07440).
T4 sequence (Q07440 whole entry): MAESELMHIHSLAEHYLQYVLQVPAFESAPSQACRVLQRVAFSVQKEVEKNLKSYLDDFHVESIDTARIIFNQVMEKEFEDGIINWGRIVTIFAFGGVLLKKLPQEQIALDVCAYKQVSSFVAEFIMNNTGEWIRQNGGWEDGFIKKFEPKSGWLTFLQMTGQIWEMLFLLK
Briefly: Bfl-1 binding inhibitors, SAR follow-up, biochemical, fluorescence polarization (AID 1070).

For experiment [18], the target named is Glyceraldehyde-3-phosphate dehydrogenase (Homo sapiens, UniProt P04406).
Experiment [19] deals with T4, Bcl-2-related protein A1. The experiment in a line: small-molecule antagonists of Bfl-1/BH3 interaction – biochemical, TR-FRET, mouse Bfl-1, confirmation (AID 621).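 Note: TR-FRET binding of GST-Bfl-1 to FITC-labelled Bid peptide via terbium antibody.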
The nature of experiment [20]: HPDE-C7 pancreatic duct cell viability loss – fluorescence, HTS (AID 430). It is filed as functional, cell-based. The note with it: Homo sapiens.
Experiment [21] deals with G-protein coupled receptor 55 (Homo sapiens, UniProt Q9Y2T6). The experiment in a line: selective activators of receptor GPR55 – imaging, U2OS cells, beta-arrestin-GFP redistribution, primary screen (AID 1961). It is filed as functional.
A short description of experiment [22]: viability loss of HPDE-C7K cells – cell-based, fluorescence, HTS, primary screen (AID 431). It is filed as functional. As to conditions: Homo sapiens.

Several values for one entry are separate records, joined by “and”; a condition that tells them apart may be missing. Equal values may be shown once. Activity calls are given as the source filed them. Where only a bound is given, the exact number is not on record here.

T1 sequence (P11940 whole entry, the tested form may be a part): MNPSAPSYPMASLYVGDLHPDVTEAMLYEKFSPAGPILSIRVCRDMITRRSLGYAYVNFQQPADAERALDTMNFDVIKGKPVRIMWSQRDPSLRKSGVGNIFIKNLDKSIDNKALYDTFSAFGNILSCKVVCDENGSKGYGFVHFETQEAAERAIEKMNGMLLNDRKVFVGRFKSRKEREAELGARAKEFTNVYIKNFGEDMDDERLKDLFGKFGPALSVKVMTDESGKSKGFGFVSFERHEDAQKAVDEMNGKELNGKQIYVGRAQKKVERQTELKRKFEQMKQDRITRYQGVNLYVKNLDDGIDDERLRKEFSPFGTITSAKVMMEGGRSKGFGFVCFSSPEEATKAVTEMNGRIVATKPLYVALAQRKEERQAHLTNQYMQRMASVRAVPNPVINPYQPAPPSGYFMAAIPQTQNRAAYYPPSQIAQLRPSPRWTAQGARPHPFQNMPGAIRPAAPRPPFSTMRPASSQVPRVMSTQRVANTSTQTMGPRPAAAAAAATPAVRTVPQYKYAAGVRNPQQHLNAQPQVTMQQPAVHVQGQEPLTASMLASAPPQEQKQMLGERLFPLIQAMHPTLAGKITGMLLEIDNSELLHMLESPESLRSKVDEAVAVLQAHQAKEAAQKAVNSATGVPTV
Chain of Tumor necrosis factor (P01375 whole entry): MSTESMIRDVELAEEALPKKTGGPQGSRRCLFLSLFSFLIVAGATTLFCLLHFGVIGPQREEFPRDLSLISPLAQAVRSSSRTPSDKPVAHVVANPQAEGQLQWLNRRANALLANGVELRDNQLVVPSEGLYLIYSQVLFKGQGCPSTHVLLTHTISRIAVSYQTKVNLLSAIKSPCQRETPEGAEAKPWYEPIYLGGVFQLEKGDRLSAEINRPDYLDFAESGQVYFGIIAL
Chain of Potassium voltage-gated channel subfamily KQT member 2 (O88943 whole entry): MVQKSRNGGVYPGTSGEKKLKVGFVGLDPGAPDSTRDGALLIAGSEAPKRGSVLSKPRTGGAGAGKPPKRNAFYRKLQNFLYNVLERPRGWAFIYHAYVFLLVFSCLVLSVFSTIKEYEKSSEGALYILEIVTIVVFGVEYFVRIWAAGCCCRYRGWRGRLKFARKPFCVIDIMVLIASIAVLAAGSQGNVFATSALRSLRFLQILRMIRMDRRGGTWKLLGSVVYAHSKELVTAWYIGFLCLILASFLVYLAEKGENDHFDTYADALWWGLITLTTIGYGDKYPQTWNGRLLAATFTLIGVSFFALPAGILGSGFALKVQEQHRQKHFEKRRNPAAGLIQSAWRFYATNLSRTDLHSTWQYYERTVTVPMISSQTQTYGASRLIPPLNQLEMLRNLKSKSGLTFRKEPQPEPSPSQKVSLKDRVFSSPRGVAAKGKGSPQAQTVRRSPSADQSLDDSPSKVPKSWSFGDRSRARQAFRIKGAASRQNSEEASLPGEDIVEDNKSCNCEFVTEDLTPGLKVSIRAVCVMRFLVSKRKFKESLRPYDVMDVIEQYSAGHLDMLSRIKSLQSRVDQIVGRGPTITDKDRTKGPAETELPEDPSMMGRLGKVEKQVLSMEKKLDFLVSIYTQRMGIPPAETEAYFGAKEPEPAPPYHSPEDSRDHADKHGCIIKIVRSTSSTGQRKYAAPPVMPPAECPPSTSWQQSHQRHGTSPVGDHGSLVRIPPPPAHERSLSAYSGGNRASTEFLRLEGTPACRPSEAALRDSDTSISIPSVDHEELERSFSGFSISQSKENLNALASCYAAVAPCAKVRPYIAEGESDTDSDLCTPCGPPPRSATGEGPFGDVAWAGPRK
Chain of Glyceraldehyde-3-phosphate dehydrogenase (P04406 whole entry): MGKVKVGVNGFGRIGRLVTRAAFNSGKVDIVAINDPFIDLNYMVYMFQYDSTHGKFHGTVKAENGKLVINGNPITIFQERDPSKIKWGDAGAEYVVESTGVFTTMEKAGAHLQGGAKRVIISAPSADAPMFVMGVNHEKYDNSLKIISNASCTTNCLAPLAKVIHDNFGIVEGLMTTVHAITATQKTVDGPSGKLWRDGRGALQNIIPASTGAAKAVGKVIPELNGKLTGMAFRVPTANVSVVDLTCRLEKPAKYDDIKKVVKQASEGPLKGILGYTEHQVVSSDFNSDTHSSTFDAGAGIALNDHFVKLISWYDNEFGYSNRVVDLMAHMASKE
Chain of DNA dC->dU-editing enzyme APOBEC-3G (Q9HC16 whole entry): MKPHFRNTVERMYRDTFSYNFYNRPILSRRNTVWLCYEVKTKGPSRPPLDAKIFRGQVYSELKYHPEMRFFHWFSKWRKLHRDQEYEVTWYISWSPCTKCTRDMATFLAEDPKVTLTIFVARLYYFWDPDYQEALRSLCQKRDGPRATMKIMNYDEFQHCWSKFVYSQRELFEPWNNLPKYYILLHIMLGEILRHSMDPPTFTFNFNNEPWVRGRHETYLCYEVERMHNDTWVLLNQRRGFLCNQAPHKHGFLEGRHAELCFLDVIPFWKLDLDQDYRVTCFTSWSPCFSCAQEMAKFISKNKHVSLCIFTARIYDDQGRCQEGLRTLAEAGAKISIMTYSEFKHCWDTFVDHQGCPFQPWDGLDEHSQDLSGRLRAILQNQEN
Chain of Ras and Rab interactor 1/Tyrosine-protein kinase ABL1 (P00519 whole entry, the tested form may be a part): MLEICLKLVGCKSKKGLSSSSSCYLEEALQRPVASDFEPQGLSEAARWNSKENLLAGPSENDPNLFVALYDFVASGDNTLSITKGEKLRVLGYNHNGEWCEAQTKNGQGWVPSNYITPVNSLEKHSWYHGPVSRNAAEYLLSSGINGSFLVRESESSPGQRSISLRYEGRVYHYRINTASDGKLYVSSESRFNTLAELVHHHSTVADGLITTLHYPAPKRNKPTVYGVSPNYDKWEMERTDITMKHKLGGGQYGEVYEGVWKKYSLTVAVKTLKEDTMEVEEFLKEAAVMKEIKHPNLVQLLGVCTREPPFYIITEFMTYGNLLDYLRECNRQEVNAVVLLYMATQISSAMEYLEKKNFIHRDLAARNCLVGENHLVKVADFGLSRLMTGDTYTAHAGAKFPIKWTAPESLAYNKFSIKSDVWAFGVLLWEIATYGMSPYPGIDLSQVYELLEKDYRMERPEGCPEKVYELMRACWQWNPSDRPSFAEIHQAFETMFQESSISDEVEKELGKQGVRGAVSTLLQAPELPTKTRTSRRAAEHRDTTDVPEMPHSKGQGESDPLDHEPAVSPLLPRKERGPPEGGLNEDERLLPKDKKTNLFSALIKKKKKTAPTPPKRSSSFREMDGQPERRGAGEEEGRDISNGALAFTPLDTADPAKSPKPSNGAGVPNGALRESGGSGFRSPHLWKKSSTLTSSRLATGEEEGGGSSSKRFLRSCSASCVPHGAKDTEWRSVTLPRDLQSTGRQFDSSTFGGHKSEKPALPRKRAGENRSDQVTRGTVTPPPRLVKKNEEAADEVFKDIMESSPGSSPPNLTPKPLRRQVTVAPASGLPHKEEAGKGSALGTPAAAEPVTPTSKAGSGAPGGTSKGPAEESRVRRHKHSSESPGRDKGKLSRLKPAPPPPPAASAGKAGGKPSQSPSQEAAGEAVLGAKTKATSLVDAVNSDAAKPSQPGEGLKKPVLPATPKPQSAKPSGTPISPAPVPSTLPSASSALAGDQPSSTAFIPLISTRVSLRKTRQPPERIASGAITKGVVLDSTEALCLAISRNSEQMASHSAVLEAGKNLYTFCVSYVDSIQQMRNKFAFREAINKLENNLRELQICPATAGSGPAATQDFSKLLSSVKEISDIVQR
Chain of Ras and Rab interactor 1/Tyrosine-protein kinase ABL1 (Q13671 whole entry, the tested form may be a part): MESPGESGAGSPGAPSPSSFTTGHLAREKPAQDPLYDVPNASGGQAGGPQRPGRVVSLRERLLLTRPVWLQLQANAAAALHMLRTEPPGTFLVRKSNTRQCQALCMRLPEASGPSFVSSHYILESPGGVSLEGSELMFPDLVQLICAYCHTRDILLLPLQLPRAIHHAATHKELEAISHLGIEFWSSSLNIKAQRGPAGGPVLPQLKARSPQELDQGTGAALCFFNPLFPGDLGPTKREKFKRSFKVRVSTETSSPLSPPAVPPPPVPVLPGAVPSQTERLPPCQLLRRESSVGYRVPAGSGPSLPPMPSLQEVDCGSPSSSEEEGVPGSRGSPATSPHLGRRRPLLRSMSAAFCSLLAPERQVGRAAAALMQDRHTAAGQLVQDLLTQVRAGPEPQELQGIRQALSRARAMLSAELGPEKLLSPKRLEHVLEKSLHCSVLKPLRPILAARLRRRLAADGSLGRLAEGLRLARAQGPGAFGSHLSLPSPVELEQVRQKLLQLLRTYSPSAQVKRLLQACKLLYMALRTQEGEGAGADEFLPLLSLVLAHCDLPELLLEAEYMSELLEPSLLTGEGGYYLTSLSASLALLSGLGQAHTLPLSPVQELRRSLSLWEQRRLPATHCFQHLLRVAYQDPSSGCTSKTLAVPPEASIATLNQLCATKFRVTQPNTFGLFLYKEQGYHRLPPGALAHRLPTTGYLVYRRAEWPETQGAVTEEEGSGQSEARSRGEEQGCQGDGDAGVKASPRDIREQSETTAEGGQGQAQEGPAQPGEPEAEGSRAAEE
Chain of G-protein coupled receptor 55 (Q9Y2T6 whole entry): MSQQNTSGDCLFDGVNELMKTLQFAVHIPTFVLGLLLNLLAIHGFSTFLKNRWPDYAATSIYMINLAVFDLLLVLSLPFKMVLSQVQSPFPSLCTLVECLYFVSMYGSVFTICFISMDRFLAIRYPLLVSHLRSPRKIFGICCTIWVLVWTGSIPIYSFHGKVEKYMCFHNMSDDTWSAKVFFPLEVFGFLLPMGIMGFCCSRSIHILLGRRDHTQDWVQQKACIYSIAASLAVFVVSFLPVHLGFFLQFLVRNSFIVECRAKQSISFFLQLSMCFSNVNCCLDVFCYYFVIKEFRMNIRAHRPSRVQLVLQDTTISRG

As for `Cc1ccc(C(=O)O)cc1NC(=S)NC(=O)c1ccc(-c2ccc(Cl)cc2)o1`, the CC50 in experiment [1] is 23.2 µM (active). The figures for the IC50 in experiment [2], in experiment [3] and in experiment [4] were 22.8 µM (active), > 66 µM (inactive) and > 66 µM (inactive), respectively.

As to `Nc1nc2ccccc2n1Cc1ccc(Cl)cc1`, the IC50 is 12.1 µM (active) in [5]; 19.8 µM (active) in experiment [6]; 8.92 µM (active) and > 20 µM (inactive) in experiment [7].

For `CCC(C)c1ccc(NC(=S)Nc2cccnc2)cc1` (centres undefined), the EC50 in experiment [8] is 12.6 µM (active).

As for `COc1cc(O)c(C(C)=O)c(CC(=O)O)c1`, the IC50 in experiment [9] is 15.6 µM (inactive); in experiment [10], 3.5 µM (active). The AC50 in [11] was 46.3 µM (active).

For `COc1ccc(OC)c(Nc2nc(-c3cccs3)cs2)c1`, the results for the CC50 in experiment [1] and in experiment [12] were 26.5 µM (active) and > 40 µM (active), respectively.

Turning to `Cc1nc2ccc(NC(=O)C3COc4ccccc4O3)cc2s1` (centres undefined), the IC50 is 6.02 µM (active) in experiment [13], 6.32 µM (active) in experiment [14], > 100 µM (inactive) in experiment [15] and 11.1 µM (active) in experiment [16].

Consider `Cc1ccc(NC(=O)Nc2cccnc2)cc1F`, for which the EC50 in experiment [8] was 9.14 µM (active).

For `Cc1ccc(Cl)cc1N1CCN(C2=C(Cl)C(=O)N(c3ccc(Cl)c(Cl)c3)C2=O)CC1`, the IC50 in experiment [17], in [18] and in experiment [19] was > 100 µM (not active) throughout.

Turning to `COc1ccc(C2(O)CC3CCC(C2)N3c2cc(C)nc(-c3ccccc3)n2)cc1` (centres undefined), the EC50 in experiment [20] is > 20 µM (not active); in experiment [21], 7.35 µM (active); in [22], > 20 µM (not active).
